# Reference: ChEMBL document CHEMBL5096181, “Isoxazole derivatives as anticancer agent: A review on synthetic strategies, mechanism of action and SAR studies” (Eur J Med Chem, 2021)
# Columns and labels:
# Mahlavu = assay: Cytotoxicity against human Mahlavu cells assessed as cell growth inhibition and measured after 72 hrs by SRB assay; format: functional, cell-based
# Huh-7 = assay: Cytotoxicity against human Huh-7 cells assessed as cell growth inhibition and measured after 72 hrs by SRB assay; format: functional, cell-based; settings: Huh-7, 72 h
# MCF7 [1] = assay: Cytotoxicity against human MCF7 cells assessed as cell growth inhibition and measured after 72 hrs by SRB assay; format: functional, cell-based; settings: MCF7, 72 h
# DU-145 = assay: Cytotoxicity against human DU-145 cells assessed as inhibition of cell growth by MTT assay; format: functional, cell-based
# MCF7 [2] = assay: Anticancer activity against human MCF7 cells assessed as inhibition of cell proliferation measured after 4 hrs by MTT assay; format: functional, cell-based; settings: MCF7, 4 h
# CWR22R = assay: Antiproliferative activity against human 22Rv1 cells assessed as cell growth inhibition by MTT assay; format: functional, cell-based
# PC-3 = assay: Antiproliferative activity against human PC-3 cells assessed as cell growth inhibition by MTT assay; format: functional, cell-based
# Tubulin [3] = assay: Inhibition of tubulin polymerization (unknown origin) by spectrophotometer based analysis; format: protein-complex assay, Homo sapiens
# LNCaP = assay: Antiproliferative activity against human LNCaP cells assessed as cell growth inhibition by MTT assay; format: functional, cell-based
# LNCaP C4-2B = assay: Antiproliferative activity against human LNCaP C4-2B cells assessed as cell growth inhibition by MTT assay; format: functional, cell-based
# MCF7 [4] = assay: Cytotoxicity against human MCF7 cells assessed as cell growth inhibition by MTT assay; format: functional, cell-based
# [5] = molecular target: T1, Tyrosine-protein phosphatase non-receptor type 2 (Homo sapiens, UniProt P17706); assay: Inhibition of TCPTP (unknown origin) by SpectraMax 340 microplate reader Analysis
# T1 sequence (P17706 whole entry): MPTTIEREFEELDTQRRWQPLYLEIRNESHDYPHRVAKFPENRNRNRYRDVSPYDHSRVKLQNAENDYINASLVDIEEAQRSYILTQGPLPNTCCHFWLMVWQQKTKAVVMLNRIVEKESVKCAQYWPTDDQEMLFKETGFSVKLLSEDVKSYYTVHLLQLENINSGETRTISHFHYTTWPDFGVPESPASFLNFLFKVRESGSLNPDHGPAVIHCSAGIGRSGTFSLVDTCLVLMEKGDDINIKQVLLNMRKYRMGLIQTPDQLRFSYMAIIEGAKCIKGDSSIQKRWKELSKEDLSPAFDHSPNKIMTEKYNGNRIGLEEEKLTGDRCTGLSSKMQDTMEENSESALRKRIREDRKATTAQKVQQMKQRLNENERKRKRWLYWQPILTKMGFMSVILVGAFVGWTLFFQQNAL
# [6] = molecular target: T2, Tyrosine-protein phosphatase non-receptor type 1 (Homo sapiens, UniProt P18031); assay: Inhibition of PTP1B (unknown origin) by SpectraMax 340 microplate reader Analysis
# T2 sequence (P18031 whole entry): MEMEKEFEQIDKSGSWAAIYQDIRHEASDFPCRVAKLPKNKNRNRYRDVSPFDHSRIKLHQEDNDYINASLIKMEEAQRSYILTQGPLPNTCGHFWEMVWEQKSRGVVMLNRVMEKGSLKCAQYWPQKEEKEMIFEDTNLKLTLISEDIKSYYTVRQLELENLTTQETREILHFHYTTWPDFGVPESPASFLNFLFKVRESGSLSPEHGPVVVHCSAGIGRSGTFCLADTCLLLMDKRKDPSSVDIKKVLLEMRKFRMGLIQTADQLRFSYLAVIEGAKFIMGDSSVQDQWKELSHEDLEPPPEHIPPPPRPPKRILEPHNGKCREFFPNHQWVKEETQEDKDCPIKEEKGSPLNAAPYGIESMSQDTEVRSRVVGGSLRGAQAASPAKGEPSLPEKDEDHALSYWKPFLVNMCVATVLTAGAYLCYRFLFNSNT
# Estrogen receptor = molecular target: T3, Estrogen receptor (Homo sapiens, UniProt P03372); assay: Inhibition of ERalpha (unknown origin) in MCF7 cells measured after 24 to 48 hrs by FRET assay; format: cell-based
# T3 sequence (P03372 whole entry): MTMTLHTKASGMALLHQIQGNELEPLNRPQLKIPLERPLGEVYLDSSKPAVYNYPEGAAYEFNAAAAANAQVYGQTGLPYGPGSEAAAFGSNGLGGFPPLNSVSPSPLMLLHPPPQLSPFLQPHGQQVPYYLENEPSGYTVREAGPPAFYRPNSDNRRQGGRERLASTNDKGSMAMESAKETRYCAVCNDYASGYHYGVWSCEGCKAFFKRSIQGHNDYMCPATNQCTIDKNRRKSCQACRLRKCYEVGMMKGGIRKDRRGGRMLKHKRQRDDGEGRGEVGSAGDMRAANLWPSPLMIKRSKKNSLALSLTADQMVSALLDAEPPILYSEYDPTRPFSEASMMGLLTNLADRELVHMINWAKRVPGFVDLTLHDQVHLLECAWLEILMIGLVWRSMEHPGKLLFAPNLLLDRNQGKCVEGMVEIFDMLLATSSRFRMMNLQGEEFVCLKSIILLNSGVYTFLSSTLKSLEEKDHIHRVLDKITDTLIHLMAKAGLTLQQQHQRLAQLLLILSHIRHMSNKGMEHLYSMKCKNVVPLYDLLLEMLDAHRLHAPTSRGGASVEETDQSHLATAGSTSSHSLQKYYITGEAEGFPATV
# MCF7R = assay: Cytotoxicity against human MCF7R cells assessed as cell growth inhibition and by MTT assay; format: functional, cell-based
# MCF7 [7] = assay: Induction of apoptosis in human MCF7 cells assessed as early apoptosis cells at 2.0 uM measured after 24 hrs by annexin-V-FITC and PI staining based flow cytometry analysis (reference value: 0.486%); format: functional
# MCF7 [8] = assay: Induction of apoptosis in human MCF7 cells assessed as late apoptosis cells at 2.0 uM measured after 24 hrs by annexin-V-FITC and PI staining based flow cytometry analysis (reference value: 0.529%); format: functional
# Tubulin [9] = molecular target: Tubulin (Sus scrofa, UniProt P02554+P02550); assay: Inhibition of pig brain tubulin polymerization by spectrometric method
# Aromatase = molecular target: T4, Aromatase (Homo sapiens, UniProt P11511); assay: Inhibition of human recombinant aromatase expressed in baculovirus insect cell using 7-methoxy-trifluoromethyl coumarin (MFC) as substrate preincubated for 10 mins followed by substrate addition and measured for 30 mins by fluorescence based assay
# T4 sequence (P11511 whole entry): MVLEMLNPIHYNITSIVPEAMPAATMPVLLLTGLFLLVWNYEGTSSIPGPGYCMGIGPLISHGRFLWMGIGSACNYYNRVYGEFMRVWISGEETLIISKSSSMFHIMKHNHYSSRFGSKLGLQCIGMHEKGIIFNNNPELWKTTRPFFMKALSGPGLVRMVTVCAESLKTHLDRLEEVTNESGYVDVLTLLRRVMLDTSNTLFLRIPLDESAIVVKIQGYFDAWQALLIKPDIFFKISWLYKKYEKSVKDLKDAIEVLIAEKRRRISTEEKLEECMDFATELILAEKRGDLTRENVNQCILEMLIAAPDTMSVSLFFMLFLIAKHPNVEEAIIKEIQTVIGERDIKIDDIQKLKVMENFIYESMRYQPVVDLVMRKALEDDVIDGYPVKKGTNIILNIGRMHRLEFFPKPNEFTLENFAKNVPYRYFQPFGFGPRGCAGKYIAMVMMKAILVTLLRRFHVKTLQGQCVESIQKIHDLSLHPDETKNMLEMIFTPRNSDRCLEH
# MCF7 [10] = assay: Antiproliferative activity against human MCF7 cells assessed as inhibition of cell growth measured after 48 hrs by SRB assay; format: functional, cell-based; settings: MCF7, 48 h
compound,measurement,setting,value
Cc1ccc(-c2cc(N3CCN(Cc4ccc(C(F)(F)F)cc4)CC3)no2)cc1,IC50,Mahlavu,> 40 µM
same,IC50,Huh-7,24 µM
same,IC50,MCF7 [1],9.4 µM
COc1ccc(C2CC(c3ccno3)=NN2C(N)=O)cc1OC (centres undefined),IC50,DU-145,4 µg/mL
COc1ccc(-c2oncc2-c2ccccc2Cl)c2ccccc12,IC50,MCF7 [2],10 µM
COc1cc(N(Cc2c(C)noc2C)C(=O)CSc2nc3ccccc3s2)cc(OC)c1OC,IC50,CWR22R,2.13 µM
same,IC50,PC-3,2.81 µM
same,IC50,Tubulin [3],2.87 µM
same,IC50,LNCaP,4.31 µM
same,IC50,LNCaP C4-2B,2.04 µM
Nc1nn(Cc2cc(-c3cccc(C(F)(F)F)c3)no2)c2nc(-c3cccs3)cc(C(F)(F)F)c12,IC50,MCF7 [4],13.4 µM
COc1cccc(-c2cc(Cn3nc(N)c4c(C(F)(F)F)cc(-c5cccs5)nc43)on2)c1,IC50,MCF7 [4],19.4 µM
Fc1ccc(-c2cc(N3CCN(Cc4ccc(C(F)(F)F)cc4)CC3)no2)cc1,IC50,Mahlavu,6.2 µM
same,IC50,Huh-7,5.3 µM
same,IC50,MCF7 [1],11.9 µM
Cc1cc(COc2ccc(-c3cc(N4CCN(Cc5ccc(C(F)(F)F)cc5)CC4)no3)cc2)n(C)n1,IC50,Mahlavu,3.7 µM
same,IC50,Huh-7,0.3 µM
same,IC50,MCF7 [1],1.2 µM
CS(=O)(=O)c1ccc(-c2cc(N3CCN(Cc4ccc(C(F)(F)F)cc4)CC3)no2)cc1,IC50,Mahlavu,26 µM
same,IC50,Huh-7,4.2 µM
same,IC50,MCF7 [1],2.9 µM
O=C(O)c1cccc(/C=C/c2ccc(Oc3cnoc3-c3cccc(Cl)c3)cc2)c1,IC50,[5],7.58 µM
same,IC50,[6],5.37 µM
COc1onc(-c2ccc(O)cc2)c1-c1oc2ccccc2c(=O)c1O,IC50,Estrogen receptor,91.1 µM
O=C(O)c1cccc(/C=C/c2ccc(Oc3cnoc3-c3cccc([N+](=O)[O-])c3)cc2)c1,IC50,[5],13.2 µM
same,IC50,[6],2.05 µM
O=S(=O)(Nc1ccc(-c2cn[nH]c2)cc1)c1ccc(Cl)cc1,IC50,MCF7 [1],50 µM
CCCOc1ccc(-c2cc(N3CCN(Cc4ccc(C(F)(F)F)cc4)CC3)no2)cc1,IC50,Mahlavu,7.7 µM
same,IC50,Huh-7,8.8 µM
same,IC50,MCF7 [1],4.9 µM
COc1ccc(/C=C/c2cc(/C=C/c3ccc(O)c(OC)c3)no2)cc1O,IC50,MCF7 [4],13.1 µM
same,IC50,MCF7R,12 µM
CCOc1ccc(-c2cnoc2-c2ccc(OC)c3ccccc23)cc1,inhibition at 2 µM,MCF7 [7],15.3%
same,IC50,MCF7 [2],1.23 µM
same,inhibition at 2 µM,MCF7 [8],6.44%
same,IC50,Tubulin [9],3.4 µM
O=C(O)c1cccc(/C=C/c2ccc(Oc3cnoc3-c3ccccc3Cl)cc2)c1,IC50,[5],36.2 µM
same,IC50,[6],1.75 µM
COc1ccc(C2CC(c3ccno3)=NN2C(N)=O)c(F)c1OC (centres undefined),IC50,DU-145,2 µg/mL
Cc1c(-c2nocc2C(=O)SC#N)c(=O)n(-c2ccccc2)n1C,IC50,Aromatase,0.0023 µM
FC(F)(F)c1ccc(CN2CCN(c3cc(-c4ccccc4)on3)CC2)cc1,IC50,Mahlavu,14.1 µM
same,IC50,Huh-7,17.1 µM
same,IC50,MCF7 [1],19.1 µM
COc1ccc(C2CC(c3c(-c4ccc([N+](=O)[O-])cc4)noc3C)=NN2C(N)=S)cc1 (centres undefined),IC50,MCF7 [4],4.48 µg/mL
FC(F)(F)c1ccc(CN2CCN(c3cc(-c4ccc(Cl)cc4)on3)CC2)cc1,IC50,Mahlavu,26.8 µM
same,IC50,Huh-7,9.6 µM
same,IC50,MCF7 [1],14 µM
O=S(=O)(Nc1ccc(-c2cnoc2)cc1)c1ccc(Cl)cc1,IC50,MCF7 [1],5.7 µM
Nc1nn(Cc2cc(-c3ccc4ccccc4n3)no2)c2nc(-c3cccs3)cc(C(F)(F)F)c12,IC50,MCF7 [4],31.6 µM
COc1ccc(-c2cnoc2-c2ccc(OC)c3ccccc23)cc1,IC50,MCF7 [2],2.03 µM
Cc1noc(C)c1COc1ccc(-c2cc(N3CCN(Cc4ccc(C(F)(F)F)cc4)CC3)no2)cc1,IC50,Mahlavu,2.2 µM
same,IC50,Huh-7,1.2 µM
same,IC50,MCF7 [1],1.6 µM
COc1cc(N(C(=O)CSc2nc3ccccc3s2)c2ccncc2)cc(OC)c1OC,IC50,CWR22R,5.09 µM
Oc1ccc(-c2cc(N3CCN(Cc4ccc(C(F)(F)F)cc4)CC3)no2)cc1,IC50,Mahlavu,7.5 µM
same,IC50,Huh-7,3.8 µM
same,IC50,MCF7 [1],8.3 µM
COc1ccc(-c2oncc2-c2ccc(Cl)cc2)c2ccccc12,IC50,MCF7 [2],5.26 µM
FC(F)(F)c1ccc(CN2CCN(c3cc(-c4ccc(C(F)(F)F)cc4)on3)CC2)cc1,IC50,Mahlavu,> 40 µM
same,IC50,Huh-7,19.9 µM
same,IC50,MCF7 [1],9.5 µM
O=C(O)c1cccc(/C=C/c2ccc(Oc3cnoc3-c3ccc(Cl)c(Cl)c3)cc2)c1,IC50,[5],3.78 µM
same,IC50,[6],0.91 µM
Cc1onc(-c2ccc([N+](=O)[O-])cc2)c1C1=NN(C(N)=S)C(c2cccs2)C1 (centres undefined),IC50,MCF7 [4],2.25 µg/mL
COc1ccc(-c2cc(-c3c[nH]c4ccccc34)on2)cc1,IC50,MCF7 [10],2.55 µM
Cc1onc(-c2ccc([N+](=O)[O-])cc2)c1C1=NN(C(N)=S)C(c2ccc(Cl)cc2)C1 (centres undefined),IC50,MCF7 [4],5.42 µg/mL
CC(=O)O[C@@]12CO[C@@H]1C[C@H](O)[C@@]1(C)C(=O)[C@H](O)C3=C(C)[C@@H](OC(=O)[C@H](O)[C@@H](NC(=O)OC(C)(C)C)c4ccccc4)C[C@@](O)([C@@H](OC(=O)c4ccccc4)[C@H]21)C3(C)C [DOCETAXEL ANHYDROUS],IC50,DU-145,5 µg/mL
C#Cc1cccc(Nc2ncnc3cc(OCCOC)c(OCCOC)cc23)c1 [ERLOTINIB],IC50,MCF7 [1],4.1 µM
O=c1[nH]cc(F)c(=O)[nH]1 [FLUOROURACIL],IC50,Aromatase,0.63 µM
same,IC50,CWR22R,18.3 µM
same,IC50,MCF7 [4],1.7 µM
C[C@H](CCC(=O)O)[C@H]1CC[C@H]2[C@@H]3CC[C@@H]4C[C@H](O)CC[C@]4(C)[C@H]3CC[C@]12C [LITHOCHOLIC ACID],IC50,[5],6.12 µM
same,IC50,[6],2.71 µM
CC(=O)O[C@H]1C(=O)[C@@]2(C)[C@H]([C@H](OC(=O)c3ccccc3)[C@]3(O)C[C@H](OC(=O)[C@H](O)[C@@H](NC(=O)c4ccccc4)c4ccccc4)C(C)=C1C3(C)C)[C@]1(OC(C)=O)CO[C@@H]1C[C@@H]2O [PACLITAXEL],IC50,MCF7 [4],0.015 µg/mL
